According to patent US10030047B2 (Hoffmann-La Roche Inc., priority 2015, dated 2018):
In brackets after ≈: the same amount, converted by molar mass.

Tested on: A. baumannii strain ATCC19606
Assay: Minimum inhibitory concentration (MIC) determination, microbroth dilution (CLSI)
Format: cell-based
Conditions: Acinetobacter baumannii, ATCC19606, 20 h, read-out: ATCC19606 MIC
Method: The in vitro antimicrobial activity of the compounds was determined through microbroth minimum inhibitory concentration (MIC) methodology performed according to the Clinical and Laboratory Standard Institute guidelines (CLSI—M07-A9 Jan. 2012. Methods for Dilution Antimicrobial Susceptibility Tests for Bacteria That Grow Aerobically; Approved Standard—Ninth Edition, Clinical and Laboratory Standards Institute, Wayne/PA, US and the CLSI—M100-S24 Jan. 2014. Performance Standards for Antimicrobial Susceptibility Testing; Approved Standard—Fourth Informational Supplement, Clinical and Laboratory Standards Institute, Wayne/PA, US).
The compound stock solution was freshly prepared at 10× the required top concentration for the MIC determination, i.e. at 1280 mg/L, by reconstitution of the dry compound in 50:50 water:DMSO.
Polystyrene non-treated 96 wells microtiter plates were used for preparing panel containing compound serial twofold diluted at two times the final testing concentration (e.g. range from 64 to 0.06 μg/ml) in cation adjusted Mueller Hinton broth medium (CAMHB).
Inoculum was prepared by the “direct colony suspension method”. Colonies of A. baumannii ATCC19606 or clinical isolates were suspended in saline solution and adjusted to 0.5 McFarland, diluted 100 times in CAMHB broth and 50 μl added to each well (final concentration of cells ˜5×10^(5) CFU/ml and Final volume/well of 100 μl). Microtiter plates were sealed and incubated at 35±2° C.
MICs values were read after 20 hours of incubation and recorded as the lowest concentration of the antimicrobial that inhibits more or equal to 80% of growth of the organism as detected by the unaided eye and using a microtiter plate optical density reader (OD 600 nm).
Tables 2, 3, 4 and 5 provide the minimum inhibitory concentration (MIC) in microgram per milliliter of the compounds of present invention obtained against the A. baumannii strain ATCC19606 (Tables 2, 3, 4 and 5).

Compound | MIC [µg/mL]
CN1C(=O)[C@H](CCCCN)NC(=O)[C@H](CCCN)NCc2cccnc2Sc2c(Cl)ccc(Cl)c2CNC(=O)[C@@H]1Cc1c[nH]c2ccccc12 [Example 38, (11S,14S,17S)-14-(4-Amino-butyl)-11-(3-amino-propyl)-22,25-dichloro-17-(1H-indol-3-ylmethyl)-16-methyl-2-thia-4,10,13,16,19-pentaaza-tricyclo[19.4.0.0*3,8*]pentacosa-1(25),3(8),4,6,21,23-hexaene-12,15,18-trione] | 0.5 (≈ 0.676 µM)

Same assay, conditions: Acinetobacter baumannii; A. baumannii ATCC19606; CAMHB; read after 20 hours; >=80% growth inhibition; read-out: ATCC19606 MIC

MIC [µg/mL] | Compound
2 (≈ 2.84 µM) | CN1C(=O)[C@H](CCCCN)NC(=O)[C@H](CCCN)NCc2cccnc2Sc2c(Cl)cccc2CNC(=O)[C@@H]1Cc1c[nH]c2ccccc12 [Example 28, (11S,14S,17S)-14-(4-Amino-butyl)-11-(3-amino-propyl)-25-chloro-17-(1H-indol-3-ylmethyl)-16-methyl-2-thia-4,10,13,16,19-pentaaza-tricyclo[19.4.0.0*3,8*]pentacosa-1(25),3,5,7,21,23-hexaene-12,15,18-trione]
2 (≈ 2.83 µM) | CN1C(=O)[C@H](CCCCN)NC(=O)[C@H](CCCN)NCc2ccccc2Sc2c(F)ccc(F)c2CNC(=O)[C@@H]1Cc1c[nH]c2ccccc12 [Example 29, (12S,15S,18S)-15-(4-Amino-butyl)-18-(3-amino-propyl)-4,7-difluoro-12-(1H-indol-3-ylmethyl)-13-methyl-2-thia-10,13,16,19-tetraaza-tricyclo[19.4.0.0*3,8*]pentacosa-1(21),3,5,7,22,24-hexaene-11,14,17-trione]
2 (≈ 2.91 µM) | CN1C(=O)[C@H](CCCCN)NC(=O)[C@H](CCCN)NCc2ccccc2Sc2c(F)cccc2CNC(=O)[C@@H]1Cc1c[nH]c2ccccc12 [Example 30, (12S,15S,18S)-15-(4-Amino-butyl)-18-(3-amino-propyl)-4-fluoro-12-(1H-indol-3-ylmethyl)-13-methyl-2-thia-10,13,16,19-tetraaza-tricyclo[19.4.0.0*3,8*]pentacosa-1(21),3,5,7,22,24-hexaene-11,14,17-trione]
2 (≈ 2.92 µM) | Cc1[nH]c2ccccc2c1C[C@H]1C(=O)NCc2ccccc2Sc2ccccc2CN[C@@H](CCCN)C(=O)N[C@@H](CCCCN)C(=O)N1C [Example 32, (12S,15S,18S)-15-(4-Amino-butyl)-18-(3-amino-propyl)-13-methyl-12-(2-methyl-1H-indol-3-ylmethyl)-2-thia-10,13,16,19-tetraaza-tricyclo[19.4.0.0*3,8*]pentacosa-1(21),3,5,7,22,24-hexaene-11,14,17-trione]
1 (≈ 1.42 µM) | CN1C(=O)[C@H](CCCCN)NC(=O)[C@H](CCCN)NCc2cccnc2Sc2ccc(Cl)cc2CNC(=O)[C@@H]1Cc1c[nH]c2ccccc12 [Example 33, (11S,14S,17S)-14-(4-Amino-butyl)-11-(3-amino-propyl)-23-chloro-17-(1H-indol-3-ylmethyl)-16-methyl-2-thia-4,10,13,16,19-pentaaza-tricyclo[19.4.0.0*3,8*]pentacosa-1(25),3,5,7,21,23-hexaene-12,15,18-trione]
16 (≈ 22.7 µM) | CN1C(=O)[C@H](CCCCN)NC(=O)[C@H](CCCN)NCc2cccnc2Sc2cccc(Cl)c2CNC(=O)[C@@H]1Cc1c[nH]c2ccccc12 [Example 34, (11S,14S,17S)-14-(4-Amino-butyl)-11-(3-amino-propyl)-22-chloro-17-(1H-indol-3-ylmethyl)-16-methyl-2-thia-4,10,13,16,19-pentaaza-tricyclo[19.4.0.0*3,8*]pentacosa-1(25),3,5,7,21,23-hexaene-12,15,18-trione]
2 (≈ 2.7 µM) | CN1C(=O)[C@H](CCCCN)NC(=O)[C@H](CCCN)NCc2cccnc2Sc2ccc(Cl)c(Cl)c2CNC(=O)[C@@H]1Cc1c[nH]c2ccccc12 [Example 37, (11S,14S,17S)-14-(4-Amino-butyl)-11-(3-amino-propyl)-22,23-dichloro-17-(1H-indol-3-ylmethyl)-16-methyl-2-thia-4,10,13,16,19-pentaaza-tricyclo[19.4.0.0*3,8*]pentacosa-1(25),3,5,7,21,23-hexaene-12,15,18-trione]
0.5 (≈ 0.647 µM) | CN1C(=O)[C@H](CCCCN)NC(=O)[C@H](CCCN)NCc2cccnc2Sc2c(Cl)ccc(C(F)(F)F)c2CNC(=O)[C@@H]1Cc1c[nH]c2ccccc12 [Example 39, (11S,14S,17S)-14-(4-Amino-butyl)-11-(3-amino-propyl)-25-chloro-17-(1H-indol-3-ylmethyl)-16-methyl-22-trifluoromethyl-2-thia-4,10,13,16,19-pentaaza-tricyclo[19.4.0.0*3,8*]pentacosa-1(25),3,5,7,21,23-hexaene-12,15,18-trione]

Further lines, the molecule ahead of its results:

Compound | MIC [µg/mL]
CN1C(=O)[C@H](CCCCN)NC(=O)[C@H](CCCN)NCc2cc(F)ccc2Sc2c(Cl)cc(Cl)cc2CNC(=O)[C@@H]1Cc1c[nH]c2ccccc12 [Example 27, (12S,15S,18S)-15-(4-Amino-butyl)-18-(3-amino-propyl)-4,6-dichloro-23-fluoro-12-(1H-indol-3-ylmethyl)-13-methyl-2-thia-10,13,16,19-tetraaza-tricyclo[19.4.0.0*3,8*]pentacosa-1(25),3,5,7,21,23-hexaene-11,14,17-trione] | 2 (≈ 2.64 µM)
CN1C(=O)[C@H](CCCCN)NC(=O)[C@H](CCCN)NCc2ccccc2Sc2c(cc(Cl)cc2C(F)(F)F)CNC(=O)[C@@H]1Cc1c[nH]c2ccccc12 [Example 31, (12S,15S,18S)-15-(4-Amino-butyl)-18-(3-amino-propyl)-6-chloro-12-(1H-indol-3-ylmethyl)-13-methyl-4-trifluoromethyl-2-thia-10,13,16,19-tetraaza-tricyclo[19.4.0.0*3,8*]pentacosa-1(25),3,5,7,21,23-hexaene-11,14,17-trione] | 1 (≈ 1.29 µM)
CN1C(=O)[C@H](CCCCN)NC(=O)[C@H](CCCN)NCc2c(F)cccc2Sc2ccccc2CNC(=O)[C@@H]1Cc1c[nH]c2ccccc12 [Example 35, (12S,15S,18S)-15-(4-Amino-butyl)-18-(3-amino-propyl)-22-fluoro-12-(1H-indol-3-ylmethyl)-13-methyl-2-thia-10,13,16,19-tetraaza-tricyclo[19.4.0.0*3,8*]pentacosa-1(21),3,5,7,22,24-hexaene-11,14,17-trione] | 8 (≈ 11.6 µM)
CN1C(=O)[C@H](CCCCN)NC(=O)[C@H](CCCN)NCc2cccnc2Sc2c(cccc2C(F)(F)F)CNC(=O)[C@@H]1Cc1c[nH]c2ccccc12 [Example 36, (11S,14S,17S)-14-(4-Amino-butyl)-11-(3-amino-propyl)-17-(1H-indol-3-ylmethyl)-16-methyl-25-trifluoromethyl-2-thia-4,10,13,16,19-pentaaza-tricyclo[19.4.0.0*3,8*]pentacosa-1(25),3,5,7,21,23-hexaene-12,15,18-trione] | 1 (≈ 1.35 µM)
CN1C(=O)[C@H](CCCCN)NC(=O)[C@H](CCCN)NCc2cccnc2Sc2c(F)ccc(F)c2CNC(=O)[C@@H]1Cc1c[nH]c2ccccc12 [Example 40, (11S,14S,17S)-14-(4-Amino-butyl)-1-(3-amino-propyl)-22,25-difluoro-17-(1H-indol-3-ylmethyl)-16-methyl-2-thia-4,10,13,16,19-pentaaza-tricyclo[19.4.0.0*3,8*]pentacosa-1(25),3(8),4,6,21,23-hexaene-12,15,18-trione] | 0.5 (≈ 0.707 µM)
